Measurements from US20230218614A1, “COMPOUND FOR THE TREATMENT OF C[…]” (METRIOPHARM AG, priority 2020, published 2023).

How the values were obtained:
3-nitrotyrosine = settings: ex vivo lung exposed to cigarette smoke; cited from earlier work
Vero B4 cells = settings: non-infected Vero B4 cells, antivirally effective concentrations, observation period of 3 days
Text: Herein viable cells with an intact mitochondrial succinate-tetrazolium dehydrogenase system effect an enzymatic conversion of the feebly red tetrazolium salt WST-1 (4-[3-(4-iodophenyl)-2-(4-nitrophenyl)-2H-5-tetrazolio]-1,3 benzene disulfonate) into dark red formazan. This color change can be measured photometrically in a spectrophotometer. Thus, the WST assay is a very sensitive method for measuring the toxicity of substances on the cell metabolism. The value for untreated cells was set to 100%.
The value for untreated cells was set to 100%.

Nc1cccc2c(=O)[nH][nH]c(=O)c12.[Na] [5-amino-2,3-dihydro-1,4-phthalazinedione sodium salt]
SARS-CoV-2 nucleocapsid protein (Western Blot bands) (SARS-CoV-2): clear reduction
generation of SARS-CoV-2 proteins (densitometric evaluation of nucleocapsid) (SARS-CoV-2): inhibited dose-dependently
3-nitrotyrosine (3-nitrotyrosine): nearly complete reduction
toxic effect (cell viability, WST assay) (Vero B4 cells): does not display any significant toxic effect
